Measurements as given in ChEMBL document CHEMBL5375981, “Enhanced Tumor Targeting and Penetration of Proteolysis-Targeting Chimeras through iRGD Peptide Conjugation: A Strategy for Precise Protein Degradation in Breast Cancer” (J Med Chem, 2023).
Activity calls are given as the source filed them. No cut-off for these calls is given here.

Legend:
MDA-MB-231 = assay: Antitumor activity against human MDA-MB-231 cells xenografted in BALB/C nude mouse assessed as inhibition of cell proliferation by measuring reduction in number of Ki67-stained cells at 5 to 8 uM, iv administered every other day and measured after 21 days by immunohistochemistry; format: functional, organism-based; settings: dose 5-8 µM, time 21.0 day
[1] = biological target: Bromodomain-containing protein 4 (Homo sapiens) (UniProt O60885); assay: Induction of BRD4 degradation in human MDA-MB-231 cells harboring high integrin alphaVbeta3 expression at 0.1 to 1 uM incubated for 24 hrs by Western blot analysis; format: cell-based; settings: dose 0.1-1 µM
[2] = biological target: Bromodomain-containing protein 4 (Homo sapiens) (UniProt O60885); assay: Induction of BRD4 degradation in human MDA-MB-231 cells harboring high integrin alphaVbeta3 expression assessed as reduction in BRD4 levels at 500 nM pretreated with NRP-1 inhibitor EG00229 for 2 hrs followed by compound addition and measured after 12 hrs by immunofluorescence staining based confocal microscopic analysis; format: cell-based
[3] = Toxicity in BALB/C mouse xenografted with human MDA-MB-231 cells assessed as spleen damage at 5 to 8 uM, iv administered every other day for 21 days and measured 37 days post treatment by H and E staining based assay; format: organism-based; settings: in vivo, 1392 h, dose 5-8 µM, time 58 day
Homo sapiens = species on record: Homo sapiens; assay: Antitumor activity against patient-derived Breast cancer organoid assessed as inhibition of cell growth at 0.5 to 1 uM incubated for 3 days by CCK-8 assay; format: functional, tissue-based; settings: dose 0.5-1 µM, time 3.0 day
[4] = Toxicity in BALB/C mouse xenografted with human MDA-MB-231 cells assessed as heart damage at 5 to 8 uM, iv administered every other day for 21 days and measured 37 days post treatment by H and E staining based assay; format: organism-based; settings: in vivo, 1392 h, dose 5-8 µM, time 58 day
[5] = Toxicity in BALB/C mouse xenografted with human MDA-MB-231 cells assessed as kidney damage at 5 to 8 uM, iv administered every other day for 21 days and measured 37 days post treatment by H and E staining based assay; format: organism-based; settings: in vivo, 1392 h, dose 5-8 µM, time 58 day
[6] = Toxicity in BALB/C mouse xenografted with human MDA-MB-231 cells assessed as effect on kidney weight at 5 to 8 uM, iv administered every other day for 21 days; format: organism-based; settings: in vivo, 504 h, dose 5-8 µM, time 21 day
[7] = Toxicity in BALB/C mouse xenografted with human MDA-MB-231 cells assessed as effect on liver weight at 5 to 8 uM, iv administered every other day for 21 days; format: organism-based; settings: in vivo, 504 h, dose 5-8 µM, time 21 day

With `Cc1ncsc1-c1ccc([C@H](C)NC(=O)[C@@H]2C[C@@H](OC(=O)OCCSSCCOC(=O)CCC(=O)NCCCC[C@@H]3NC(=O)[C@H](CC(=O)O)NC(=O)CNC(=O)[C@H](CCCNC(=N)N)NC(=O)[C@@H](N)CSSC[C@@H](C(=O)O)NC(=O)[C@H](CC(=O)O)NC(=O)[C@@H]4CCCN4C(=O)CNC3=O)CN2C(=O)[C@@H](NC(=O)COCCOCCOCCNC(=O)C[C@@H]2N=C(c3ccc(Cl)cc3)c3c(sc(C)c3C)-n3c(C)nnc32)C(C)(C)C)cc1` as the compound, how does the Activity (MDA-MB-231) read?
The Activity was “Active”.

What about the Activity [1] of the same compound?
Its Activity is “Active”.

What about the Activity [2] of the same compound?
Its Activity is “inactive”.

And the Activity [3]?
Its Activity is “Non-Toxic”.

And the Activity (Homo sapiens)?
Its Activity is “Active”.

And the Activity [4]?
The Activity was “Non-Toxic”.

What about the Activity [5] of the same compound?
The Activity was “Non-Toxic”.

What about the Activity [6] of the same compound?
The Activity was “Non-Toxic”.

And the Activity [7]?
Its Activity is “Non-Toxic”.
